# According to patent US7030123B2, “Indole derivatives with vascular damaging activity” (AstraZeneca AB, priority 2000, dated 2006):
# How the values were obtained:
# [1] = Dark et al 1997 Cancer Research 57, 1829-1834; cited from earlier work
# [2] = system: colchicine binding site on tubulin (purified tubulin protein from bovine brain); assay: Colchicine binding site competitive assay; conditions: dose of compound of 10 μM; relative to DMSO negative control
# Description: (i) Colchicine Binding Site Competitive Assay Kit.
# The ability of a ligand to bind specifically to the coichicine binding site on tubulin, an indicator of the vascular damaging activity, was assessed using a size exclusion chromatography assay kit from “Cytoskeleton” (1650 Fillmore St. #240, Denver, Colo. 80206, U.S.A.) Catalogue number of kit: BK023.
# The following reagents were used: • tubulin buffer, to give 0.1 mM GTP, 0.5 mM MgCl2, 0.5 mM EGTA, 40 mM PIPES buffer at pH6.9 in the final reaction mix; • purified tubulin protein from bovine brain at 1 mg/ml in tubulin buffer; • 0.02 mM fluorescent coichicine in tubulin buffer [FITC (fluorescein isothiocyanate)-labelled]; • 2 mM colchicine in tubulin buffer; • 0.2 mM vinblastine in tubulin buffer; and • G-25 Sephadex™ Fine-particle size 34-138 μm.
# The reaction was performed as follows: • 8 μl of test compound (dissolved in DMSO) was gently mixed with 150 μl of tubulin. This was then incubated at 37° C. for 30 minutes. […]
# Chromatography was performed as follows, using chromatography columns filled with 3 mls of G-25 Sephadex™ Fine slurry. […] The fluorescence of the tubulin-containing fractions was detected on a spectrophotometer which excites at 485 nm and emits at 535 nm. […]
# The degree of competition of colchicine binding by either unlabelled colchicine or test compound was calculated relative to the DMSO negative control.
# [3] = system: HUVECs (Human umbilical cord vein endothelial cells); assay: HUVEC detachment assay; type: cell-based; conditions: for activity in the HUVEC cell detachment assay (detachment): dose of compound of 100 μM, 40 minutes, versus undosed control wells
# Excerpt: (ii) HUVEC Detachment Assay
# Compounds according to the invention are expected to be able to damage vasculature, such as tumour vasculature, that has been newly formed whilst leaving normal, mature vasculature unaffected. The identification of compounds which can selectively, and preferably potently, damage newly-formed vasculature is desirable and is the subject of the present invention. The ability of the compounds to act in this way may be assessed, for example, using the procedure set out below:
# This assay examined the effects of compounds on the adherence of HUVECs (Human umbilical cord vein endothelial cells) to tissue culture plasticware.
# HUVECs (supplied by TCS Biologicals Ltd, Buckingham, United Kingdom) were plated in 0.2% gelatin-coated 12 well tissue culture plates at a concentration of 3×10^4 cells per well in 1 ml TCS medium. After 24 hours, when the cells were at ˜30% confluency, they were dosed with a compound under test for 40 minutes at 37° C., 5% CO2. After this incubation the medium containing drug was pipetted off, and the cells were then gently washed in 2 mls of HBSS (Hanks' Balanced Salt Solution purchased from Life Technologies Ltd, Paisley UK; Catalogue # 24020-083) to remove any detached cells. The washing solution was then removed, and the adherent cells remaining were trypsinised using 300 μl of 1×Trypsin-EDTA solution (Life Technologies Ltd, Paisley, UK; Catalogue # 43500-019) at ambient temperature for 2 minutes. The trypsinised cells were then made up to 1 ml with TCS Biologicals medium, then centrifuged at 2000 rpm for 2 minutes. The cell pellet was then resuspended in a volume of 50 μl of TCS Biologicals medium. Total cell counts were obtained by counting the cells on a haemocytometer. The amount of cell detachment was calculated by comparing the number of cells remaining attached following treatment with the number in undosed control wells.
smiles,measurement,setting,value
"COc1cc(Oc2ccc3[nH]c(N)c(C#N)c3c2)cc(OC)c1OC [Example 11, 5-(3,4,5-Trimethoxyphenoxy)-2-amino-1H-indole-3-carbonitrile]",melting point,,208 to 209 °C
CC[C@]1(O)C[C@H]2CN(CCc3c([nH]c4ccccc34)[C@@](C(=O)OC)(c3cc4c(cc3OC)N(C=O)[C@H]3[C@@](O)(C(=O)OC)[C@H](OC(C)=O)[C@]5(CC)C=CCN6CC[C@]43[C@@H]65)C2)C1 [vincristine],"doses at which vascular damaging activity is elicited, relative to the maximum tolerated dose (MTD)",[1],only elicit vascular damaging activity at doses approaching the maximum tolerated dose
COc1ccc(/C=C\c2cc(OC)c(OC)c(OC)c2)cc1O [Combretastatin A4],anti-vascular effects at doses below the MTD,[1],greater than 10 times less than the MTD
"COc1ccc(Sc2ccc3[nH]c(N)c(C#N)c3c2)cc1OC [Example 3, 5-(3,4-Dimethoxyphenylsulphanyl)-2-amino-1H-indole-3-carbonitrile]",melting point,,169 to 173 °C
COc1cc2c(c(OC)c1OC)-c1ccc(OC)c(=O)cc1[C@@H](NC(C)=O)CC2 [colchicine],"doses at which vascular damaging activity is elicited, relative to the maximum tolerated dose (MTD)",[1],only elicit vascular damaging activity at doses approaching the maximum tolerated dose
"N#Cc1c(N)[nH]c2ccc(Sc3ccc(O)cc3)cc12 [Example 2, 5-(4-Hydroxyphenylsulphanyl)-2-amino-1H-indole-3-carbonitrile]",melting point,,241 to 242 °C
same,activity in the colchicine binding site competitive assay (competition),[2],36%
same,activity in the HUVEC cell detachment assay (detachment),[3],55%
"CC(=O)O[C@H]1C(=O)[C@@]2(C)[C@H]([C@H](OC(=O)c3ccccc3)[C@]3(O)C[C@H](OC(=O)[C@H](O)[C@@H](NC(=O)c4ccccc4)c4ccccc4)C(C)=C1C3(C)C)[C@]1(OC(C)=O)CO[C@@H]1C[C@@H]2O [Taxol, reference compound]",cell detachment in the HUVEC detachment assay,[3],does not cause cell detachment
"COc1ccc(Oc2ccc3[nH]c(N)c(C#N)c3c2)cc1 [Example 9, 5-(4-Methoxyphenoxy)-2-amino-1H-indole-3-carbonitrile]",melting point,,216 to 217 °C
"Cc1cc2[nH]c(N)c(C#N)c2cc1F [Example 8, 6-methyl-5-fluoro-2-amino-1H-indole-3-carbonitrile]",activity in the colchicine binding site competitive assay (competition),[2],31%
same,activity in the HUVEC cell detachment assay (detachment),[3],34%
